From article PMC9127068 (ChemMedChem, 2022) come the findings set out here.

Molecules are shown by their SMILES.

This assay has as its target T1, 5-HT1A receptor (5-HT1AR) (Homo sapiens, UniProt P08908).
T1 sequence (P08908 1-422): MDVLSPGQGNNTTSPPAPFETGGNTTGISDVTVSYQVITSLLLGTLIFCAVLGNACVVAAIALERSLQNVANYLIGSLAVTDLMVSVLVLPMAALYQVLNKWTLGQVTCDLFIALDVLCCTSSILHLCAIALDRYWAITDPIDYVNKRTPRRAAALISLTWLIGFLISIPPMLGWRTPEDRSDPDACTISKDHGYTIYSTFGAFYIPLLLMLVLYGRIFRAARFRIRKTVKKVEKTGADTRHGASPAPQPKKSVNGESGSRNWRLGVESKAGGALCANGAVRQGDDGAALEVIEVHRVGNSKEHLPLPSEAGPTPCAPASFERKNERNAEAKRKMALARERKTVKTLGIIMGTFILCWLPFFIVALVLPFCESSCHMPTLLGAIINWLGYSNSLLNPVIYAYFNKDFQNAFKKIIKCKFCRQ
The assay can be described thus: radioligand displacement of [3H]-8-OH-DPAT. The class given is binding.

The compound `CCCN(CCCCCCNS(=O)(=O)c1cccc2c(N(C)C)cccc12)C1CCc2cccc(O)c2C1` (centres unmarked) [5a] showed an inhibition constant Ki of 1.8 nM.

Turning to `CCCN(CCCCCCNc1ccc([N+](=O)[O-])c2nonc12)C1CCc2cccc(O)c2C1` (centres unmarked) [5b], the Ki is 10 nM.
